Reference: PubChem BioAssay (NCI)
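96-well plates; 48 h exposure; 5 concentrations. Endpoints by linear interpolation between flanking doses. Not reached: highest tested concentration assigned. TGI is the concentration that stops growth completely.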

Experiments:
Assay in all cases: growth of human tumour cells (NCI), 48 h
A498 renal = tested on: A498 renal
CCRF-CEM leukemia = tested on: CCRF-CEM leukemia
COLO 205 colon = tested on: COLO 205 colon
HOP-92 NSCLC = tested on: HOP-92 NSCLC
HS 578T breast = tested on: HS 578T breast
HT29 colon = tested on: HT29 colon
MCF7 breast = tested on: MCF7 breast
MDA-MB-231 breast = tested on: MDA-MB-231 breast
MOLT-4 leukemia = tested on: MOLT-4 leukemia
NCI-H460 lung = tested on: NCI-H460 lung
OVCAR-3 ovarian = tested on: OVCAR-3 ovarian
OVCAR-5 ovarian = tested on: OVCAR-5 ovarian
RPMI-8226 leukemia = tested on: RPMI-8226 leukemia
SK-MEL-28 melanoma = tested on: SK-MEL-28 melanoma
SK-MEL-5 melanoma = tested on: SK-MEL-5 melanoma
SN12C renal = tested on: SN12C renal
SR leukemia = tested on: SR leukemia
SW-620 colon = tested on: SW-620 colon
TK-10 renal = tested on: TK-10 renal
NCI/ADR-RES ovarian = tested on: NCI/ADR-RES ovarian

Nc1ccc(C2SCC(=O)N2NS(=O)(=O)c2cccc(C(=O)O)c2)cc1 (stereo not given)
TGI (A498 renal): > 100 µM
TGI (CCRF-CEM leukemia): > 100 µM
TGI (COLO 205 colon): > 100 µM
TGI (HOP-92 NSCLC): > 100 µM
TGI (HS 578T breast): > 100 µM
TGI (HT29 colon): > 100 µM
TGI (MCF7 breast): > 100 µM
TGI (MDA-MB-231 breast): > 100 µM
TGI (MOLT-4 leukemia): > 100 µM
TGI (NCI-H460 lung): > 100 µM
TGI (OVCAR-3 ovarian): > 100 µM
TGI (OVCAR-5 ovarian): > 100 µM
TGI (RPMI-8226 leukemia): > 100 µM
TGI (SK-MEL-28 melanoma): > 100 µM
TGI (SK-MEL-5 melanoma): > 100 µM
TGI (SN12C renal): > 100 µM
TGI (SR leukemia): > 100 µM
TGI (SW-620 colon): > 100 µM
TGI (TK-10 renal): > 100 µM

COC(=O)C(C(=O)C(=O)Nc1ccccc1C)c1nc2ccc([N+](=O)[O-])cc2[nH]c1=O (stereo not given)
TGI (A498 renal): > 100 µM
TGI (CCRF-CEM leukemia): > 100 µM
TGI (COLO 205 colon): > 100 µM
TGI (HT29 colon): > 100 µM
TGI (MOLT-4 leukemia): > 100 µM
TGI (NCI-H460 lung): > 100 µM
TGI (OVCAR-3 ovarian): > 100 µM
TGI (OVCAR-5 ovarian): > 100 µM
TGI (RPMI-8226 leukemia): > 100 µM
TGI (SK-MEL-28 melanoma): > 100 µM
TGI (SK-MEL-5 melanoma): > 100 µM
TGI (SN12C renal): > 100 µM
TGI (SR leukemia): > 100 µM
TGI (SW-620 colon): > 100 µM
TGI (TK-10 renal): > 100 µM

CCCC(C(=O)OC)C1N=C(NC#N)N(Cc2ccccc2)C1=O (stereo not given)
TGI (CCRF-CEM leukemia): > 100 µM
TGI (COLO 205 colon): > 100 µM
TGI (HT29 colon): > 100 µM
TGI (MOLT-4 leukemia): > 100 µM
TGI (NCI-H460 lung): > 100 µM
TGI (OVCAR-3 ovarian): > 100 µM
TGI (OVCAR-5 ovarian): > 100 µM
TGI (RPMI-8226 leukemia): > 100 µM
TGI (SK-MEL-28 melanoma): > 100 µM
TGI (SK-MEL-5 melanoma): > 100 µM
TGI (SN12C renal): > 100 µM
TGI (SR leukemia): > 100 µM
TGI (SW-620 colon): > 100 µM
TGI (TK-10 renal): > 100 µM

CC1CCc2c(sc3ncnc(N/N=C/c4ccc(Cl)cc4)c23)C1 (stereo not given)
TGI (COLO 205 colon): > 100 µM
TGI (HT29 colon): > 100 µM
TGI (MOLT-4 leukemia): 57.3 µM
TGI (NCI-H460 lung): > 100 µM
TGI (OVCAR-3 ovarian): > 100 µM
TGI (OVCAR-5 ovarian): > 100 µM
TGI (RPMI-8226 leukemia): > 100 µM
TGI (SK-MEL-28 melanoma): > 100 µM
TGI (SK-MEL-5 melanoma): 37.2 µM
TGI (SN12C renal): > 100 µM
TGI (SR leukemia): 55 µM
TGI (SW-620 colon): > 100 µM
TGI (TK-10 renal): > 100 µM

COc1ccc(CNc2nc3cc(C(F)(F)F)ccc3nc2C(=O)O)cc1
TGI (A498 renal): 53 µM
TGI (CCRF-CEM leukemia): > 100 µM
TGI (COLO 205 colon): 39.7 µM
TGI (HOP-92 NSCLC): 62.9 µM
TGI (HT29 colon): 73.9 µM
TGI (MCF7 breast): 64.9 µM
TGI (MDA-MB-231 breast): > 100 µM
TGI (MOLT-4 leukemia): 52.6 µM
TGI (NCI-H460 lung): > 100 µM
TGI (NCI/ADR-RES ovarian): 58.1 µM
TGI (OVCAR-3 ovarian): 34.1 µM
TGI (OVCAR-5 ovarian): 94.7 µM
TGI (RPMI-8226 leukemia): > 100 µM
TGI (SK-MEL-28 melanoma): > 100 µM
TGI (SK-MEL-5 melanoma): 32.1 µM
TGI (SN12C renal): 62.6 µM
TGI (SR leukemia): 56.1 µM
TGI (SW-620 colon): > 100 µM

CC(C)[Si](Oc1ccc(CC2N(C(=O)c3ccc([N+](=O)[O-])cc3)C(CCc3ccccc3)CC2(C)C=O)cc1)(C(C)C)C(C)C (stereo not given)
TGI (A498 renal): > 100 µM
TGI (CCRF-CEM leukemia): > 100 µM
TGI (COLO 205 colon): > 100 µM
TGI (HOP-92 NSCLC): 82.8 µM
TGI (HS 578T breast): > 100 µM
TGI (MDA-MB-231 breast): 95.5 µM
TGI (OVCAR-3 ovarian): > 100 µM
TGI (OVCAR-5 ovarian): > 100 µM
TGI (RPMI-8226 leukemia): > 100 µM
TGI (SK-MEL-28 melanoma): > 100 µM
TGI (SR leukemia): > 100 µM
TGI (TK-10 renal): > 100 µM

C=C(C)CCC(O)[C@](C)(O)[C@H]1[C@H](O)C[C@@]2(C)[C@@H]3CCc4c(cc(OC5OC(CO)C(O)C(O)C5O)c(O)c4C)C3(C)C(=O)C[C@]12C (stereo not given in full)
TGI (A498 renal): > 100 µM
TGI (CCRF-CEM leukemia): > 100 µM
TGI (COLO 205 colon): > 100 µM
TGI (HOP-92 NSCLC): > 100 µM
TGI (HT29 colon): > 100 µM
TGI (MCF7 breast): > 100 µM
TGI (MDA-MB-231 breast): > 100 µM
TGI (MOLT-4 leukemia): > 100 µM
TGI (NCI-H460 lung): > 100 µM
TGI (NCI/ADR-RES ovarian): > 100 µM
TGI (OVCAR-3 ovarian): > 100 µM
TGI (OVCAR-5 ovarian): > 100 µM
TGI (SK-MEL-28 melanoma): > 100 µM
TGI (SN12C renal): > 100 µM
TGI (SR leukemia): > 100 µM
TGI (SW-620 colon): > 100 µM
TGI (TK-10 renal): > 100 µM

CCN(CC)C(=O)CC12CCCCC1=Nc1ccccc12 (stereo not given)
TGI (A498 renal): > 100 µM
TGI (CCRF-CEM leukemia): > 100 µM
TGI (COLO 205 colon): > 100 µM
TGI (HOP-92 NSCLC): > 100 µM
TGI (HT29 colon): > 100 µM
TGI (MOLT-4 leukemia): > 100 µM
TGI (NCI-H460 lung): > 100 µM
TGI (OVCAR-3 ovarian): > 100 µM
TGI (OVCAR-5 ovarian): > 100 µM
TGI (RPMI-8226 leukemia): > 100 µM
TGI (SK-MEL-28 melanoma): > 100 µM
TGI (SK-MEL-5 melanoma): > 100 µM
TGI (SW-620 colon): > 100 µM
TGI (TK-10 renal): > 100 µM

C=C1CN2CCc3c([nH]c4ccccc34)C2CC1CC(=O)N(C)C (stereo not given)
TGI (CCRF-CEM leukemia): > 309 µM
TGI (COLO 205 colon): > 309 µM
TGI (HOP-92 NSCLC): > 309 µM
TGI (HT29 colon): > 309 µM
TGI (MOLT-4 leukemia): > 309 µM
TGI (NCI-H460 lung): > 309 µM
TGI (OVCAR-3 ovarian): > 309 µM
TGI (RPMI-8226 leukemia): > 309 µM
TGI (SK-MEL-28 melanoma): > 309 µM
TGI (SK-MEL-5 melanoma): > 309 µM
TGI (SN12C renal): > 309 µM
TGI (SR leukemia): > 309 µM
TGI (SW-620 colon): > 309 µM
TGI (TK-10 renal): > 309 µM

Cc1ccc(S(=O)(=O)Nn2c(S)c(C#N)c(-c3ccc(Cl)cc3)c(C#N)c2=O)cc1
TGI (A498 renal): > 100 µM
TGI (CCRF-CEM leukemia): > 100 µM
TGI (COLO 205 colon): > 100 µM
TGI (HOP-92 NSCLC): > 100 µM
TGI (MCF7 breast): > 100 µM
TGI (MDA-MB-231 breast): > 100 µM
TGI (MOLT-4 leukemia): > 100 µM
TGI (NCI-H460 lung): 31.4 µM
TGI (NCI/ADR-RES ovarian): 71.5 µM
TGI (OVCAR-3 ovarian): > 100 µM
TGI (OVCAR-5 ovarian): > 100 µM
TGI (RPMI-8226 leukemia): 88.8 µM
TGI (SK-MEL-28 melanoma): > 100 µM
TGI (SK-MEL-5 melanoma): 42.2 µM
TGI (SN12C renal): 69.7 µM
TGI (SR leukemia): > 100 µM
TGI (SW-620 colon): 51.7 µM
TGI (TK-10 renal): 76 µM

N#C/C(=C\c1ccc[nH]1)C(=O)c1ccccc1
TGI (CCRF-CEM leukemia): > 100 µM
TGI (COLO 205 colon): > 100 µM
TGI (HOP-92 NSCLC): > 100 µM
TGI (HT29 colon): > 100 µM
TGI (MOLT-4 leukemia): > 100 µM
TGI (NCI-H460 lung): > 100 µM
TGI (OVCAR-3 ovarian): > 100 µM
TGI (OVCAR-5 ovarian): > 100 µM
TGI (RPMI-8226 leukemia): > 100 µM
TGI (SK-MEL-28 melanoma): > 100 µM
TGI (SK-MEL-5 melanoma): > 100 µM
TGI (SN12C renal): > 100 µM
TGI (SR leukemia): > 100 µM
TGI (SW-620 colon): > 100 µM
TGI (TK-10 renal): > 100 µM

O=C1N[C@H](C(=O)O)[C@@H](c2ccc(OCc3ccccc3)cc2)O1
TGI (CCRF-CEM leukemia): > 100 µM
TGI (COLO 205 colon): > 100 µM
TGI (HS 578T breast): > 100 µM
TGI (HT29 colon): > 100 µM
TGI (MCF7 breast): > 100 µM
TGI (MDA-MB-231 breast): 51.4 µM
TGI (MOLT-4 leukemia): > 100 µM
TGI (NCI/ADR-RES ovarian): 65.3 µM
TGI (OVCAR-3 ovarian): > 100 µM
TGI (OVCAR-5 ovarian): > 100 µM
TGI (RPMI-8226 leukemia): > 100 µM
TGI (SK-MEL-28 melanoma): > 100 µM
TGI (SK-MEL-5 melanoma): > 100 µM
TGI (SN12C renal): > 100 µM
TGI (SW-620 colon): > 100 µM
TGI (TK-10 renal): 84.4 µM

O=C(OCC(OC(=O)c1ccccc1)C1CC(C2(O)CCCCC2)C(=O)O1)c1ccccc1 (stereo not given)
TGI (A498 renal): > 25 µM
TGI (CCRF-CEM leukemia): > 25 µM
TGI (COLO 205 colon): > 25 µM
TGI (HT29 colon): > 25 µM
TGI (MCF7 breast): > 25 µM
TGI (MDA-MB-231 breast): > 25 µM
TGI (MOLT-4 leukemia): 19.1 µM
TGI (NCI-H460 lung): > 25 µM
TGI (NCI/ADR-RES ovarian): > 25 µM
TGI (OVCAR-3 ovarian): > 25 µM
TGI (OVCAR-5 ovarian): > 25 µM
TGI (RPMI-8226 leukemia): > 25 µM
TGI (SK-MEL-28 melanoma): > 25 µM
TGI (SK-MEL-5 melanoma): > 25 µM
TGI (SN12C renal): > 25 µM
TGI (SR leukemia): > 25 µM
TGI (SW-620 colon): > 25 µM
TGI (TK-10 renal): > 25 µM

O[C@@]12Cc3c([nH]c4ccccc34)[C@@H]3Oc4c(-c5ccccc5)ccc5c4[C@@]31CCN(CC1CC1)[C@@H]2C5
TGI (A498 renal): 2.79 µM
TGI (CCRF-CEM leukemia): 7.56 µM
TGI (COLO 205 colon): 3.28 µM
TGI (HOP-92 NSCLC): 21.4 µM
TGI (HS 578T breast): 4.62 µM
TGI (HT29 colon): 3.29 µM
TGI (MCF7 breast): 3.22 µM
TGI (MOLT-4 leukemia): 11 µM
TGI (NCI-H460 lung): 3.36 µM
TGI (NCI/ADR-RES ovarian): 6.58 µM
TGI (OVCAR-3 ovarian): 3.04 µM
TGI (OVCAR-5 ovarian): 15.1 µM
TGI (RPMI-8226 leukemia): > 100 µM
TGI (SK-MEL-28 melanoma): 3.24 µM
TGI (SK-MEL-5 melanoma): 3.25 µM
TGI (SR leukemia): > 100 µM
TGI (SW-620 colon): 4.61 µM
